Source: the supplement of paper PMC10307832

Legend:
Experiment in all cases: relative viability (nuclei count vs DMSO), 5 days (fraction); higher = more cells survive
NCI-H1734 = system: NCI-H1734
Outline: (§1)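 Lung cancer cell lines were pin-tool dosed in 1536-well plates on the day after seeding, with either a lone drug or a fixed anchor-drug dose plus five library-drug doses (not always all listed) in √10 steps. Nuclei were counted on 4× images after 5 days. Relative viability is the ratio of treated-well to vehicle-well nuclei counts, with each value a median of duplicate plates.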

NCI-H1993 = system: NCI-H1993
Outline: as §1

SK-LU-1 = system: SK-LU-1
Outline: as §1

NCI-H2342 = system: NCI-H2342
Outline: as §1

NCI-H1355 = system: NCI-H1355
Outline: as §1

NCI-H1915 = system: NCI-H1915
Outline: as §1

SW 1573 = system: SW 1573
Outline: as §1

LCLC-103H = system: LCLC-103H
Outline: as §1

NCI-H1975 = system: NCI-H1975
Outline: as §1

NCI-H2347 = system: NCI-H2347
Outline: as §1

HCC-827 = system: HCC-827
Outline: as §1

NCI-H23 = system: NCI-H23
Outline: as §1

NCI-H650 = system: NCI-H650
Outline: as §1

SK-MES-1 = system: SK-MES-1
Outline: as §1

UMC-11 = system: UMC-11
Outline: as §1

NCI-H1755 = system: NCI-H1755
Outline: as §1

HCC-366 = system: HCC-366
Outline: as §1

RERF-LC-KJ = system: RERF-LC-KJ
Outline: as §1

NCI-H2170 = system: NCI-H2170
Outline: as §1

NCI-H1792 = system: NCI-H1792
Outline: as §1

A-427 = system: A-427
Outline: as §1

LC-2-ad = system: LC-2-ad
Outline: as §1

In the case of CCNC(=O)c1noc(-c2cc(C(C)C)c(O)cc2O)c1-c1ccc(CN2CCOCC2)cc1 [Luminespib] + Nc1ncn([C@H]2C[C@H](O)[C@@H](CO)O2)c(=O)n1 [Decitabine] (partner 2 µM), the relative viability (NCI-H1734; first compound 0.002 µM) is reported as 0.489, the relative viability (NCI-H1734; first compound 0.006325 µM) is reported as 0.469 and the relative viability (NCI-H1734; first compound 0.02 µM) is reported as 0.448. It also gave a relative viability (NCI-H1734; first compound 0.06325 µM) of 0.251, a relative viability (NCI-H1734; first compound 0.2 µM) of 0.159 and a relative viability (NCI-H1993; first compound 0.002 µM) of 0.596. The relative viability (NCI-H1993; first compound 0.006325 µM) was 0.579, the relative viability (NCI-H1993; first compound 0.02 µM) was 0.48 and the relative viability (NCI-H1993; first compound 0.06325 µM) was 0.573. The relative viability (NCI-H1993; first compound 0.2 µM) was 0.371, the relative viability (SK-LU-1; first compound 0.002 µM) was 0.725 and the relative viability (SK-LU-1; first compound 0.006325 µM) was 0.462. For the same compound, the relative viability (SK-LU-1; first compound 0.02 µM) was 0.547, the relative viability (SK-LU-1; first compound 0.06325 µM) was 0.198 and the relative viability (SK-LU-1; first compound 0.2 µM) was 0.216. It also gave a relative viability (NCI-H2342; first compound 0.002 µM) of 0.648, a relative viability (NCI-H2342; first compound 0.006325 µM) of 0.82 and a relative viability (NCI-H2342; first compound 0.02 µM) of 0.546. The relative viability (NCI-H2342; first compound 0.06325 µM) was 0.821, the relative viability (NCI-H2342; first compound 0.2 µM) was 0.503 and the relative viability (NCI-H1355; first compound 0.002 µM) was 0.359. It also gave a relative viability (NCI-H1355; first compound 0.006325 µM) of 0.354, a relative viability (NCI-H1355; first compound 0.02 µM) of 0.334 and a relative viability (NCI-H1355; first compound 0.06325 µM) of 0.346. For the same compound, the relative viability (NCI-H1355; first compound 0.2 µM) was 0.243, the relative viability (NCI-H1915; first compound 0.002 µM) was 0.258 and the relative viability (NCI-H1915; first compound 0.006325 µM) was 0.278. The relative viability (NCI-H1915; first compound 0.02 µM) was 0.254, the relative viability (NCI-H1915; first compound 0.06325 µM) was 0.24 and the relative viability (NCI-H1915; first compound 0.2 µM) was 0.21. For the same compound, the relative viability (SW 1573; first compound 0.002 µM) was 0.569, the relative viability (SW 1573; first compound 0.006325 µM) was 0.456 and the relative viability (SW 1573; first compound 0.02 µM) was 0.159. For the same compound, the relative viability (SW 1573; first compound 0.06325 µM) was 0.072, the relative viability (SW 1573; first compound 0.2 µM) was 0.0827 and the relative viability (LCLC-103H; first compound 0.002 µM) was 0.732. For the same compound, the relative viability (LCLC-103H; first compound 0.006325 µM) was 0.702, the relative viability (LCLC-103H; first compound 0.02 µM) was 0.721 and the relative viability (LCLC-103H; first compound 0.06325 µM) was 0.74. The relative viability (LCLC-103H; first compound 0.2 µM) was 0.691, the relative viability (NCI-H1975; first compound 0.002 µM) was 0.393 and the relative viability (NCI-H1975; first compound 0.006325 µM) was 0.346. The relative viability (NCI-H1975; first compound 0.02 µM) was 0.355, the relative viability (NCI-H1975; first compound 0.06325 µM) was 0.127 and the relative viability (NCI-H1975; first compound 0.2 µM) was 0.144. The relative viability (NCI-H2347; first compound 0.002 µM) was 0.603, the relative viability (NCI-H2347; first compound 0.006325 µM) was 0.567 and the relative viability (NCI-H2347; first compound 0.02 µM) was 0.656. It also gave a relative viability (NCI-H2347; first compound 0.06325 µM) of 0.431, a relative viability (NCI-H2347; first compound 0.2 µM) of 0.373 and a relative viability (HCC-827; first compound 0.002 µM) of 0.36. It also gave a relative viability (HCC-827; first compound 0.006325 µM) of 0.333, a relative viability (HCC-827; first compound 0.02 µM) of 0.285 and a relative viability (HCC-827; first compound 0.06325 µM) of 0.166. It also gave a relative viability (HCC-827; first compound 0.2 µM) of 0.147, a relative viability (NCI-H23; first compound 0.002 µM) of 0.285 and a relative viability (NCI-H23; first compound 0.006325 µM) of 0.346. For the same compound, the relative viability (NCI-H23; first compound 0.02 µM) was 0.265, the relative viability (NCI-H23; first compound 0.06325 µM) was 0.164 and the relative viability (NCI-H23; first compound 0.2 µM) was 0.164. It also gave a relative viability (NCI-H650; first compound 0.002 µM) of 0.282, a relative viability (NCI-H650; first compound 0.006325 µM) of 0.354 and a relative viability (NCI-H650; first compound 0.02 µM) of 0.307. The relative viability (NCI-H650; first compound 0.06325 µM) was 0.252, the relative viability (NCI-H650; first compound 0.2 µM) was 0.0854 and the relative viability (SK-MES-1; first compound 0.002 µM) was 0.392. The relative viability (SK-MES-1; first compound 0.006325 µM) was 0.385, the relative viability (SK-MES-1; first compound 0.02 µM) was 0.213 and the relative viability (SK-MES-1; first compound 0.06325 µM) was 0.146. It also gave a relative viability (SK-MES-1; first compound 0.2 µM) of 0.147, a relative viability (UMC-11; first compound 0.002 µM) of 0.604 and a relative viability (UMC-11; first compound 0.006325 µM) of 0.569. For the same compound, the relative viability (UMC-11; first compound 0.02 µM) was 0.334, the relative viability (UMC-11; first compound 0.06325 µM) was 0.56 and the relative viability (UMC-11; first compound 0.2 µM) was 0.23. For the same compound, the relative viability (NCI-H1755; first compound 0.002 µM) was 0.673, the relative viability (NCI-H1755; first compound 0.006325 µM) was 0.691 and the relative viability (NCI-H1755; first compound 0.02 µM) was 0.696. For the same compound, the relative viability (NCI-H1755; first compound 0.06325 µM) was 0.719, the relative viability (NCI-H1755; first compound 0.2 µM) was 0.649 and the relative viability (HCC-366; first compound 0.002 µM) was 0.327. For the same compound, the relative viability (HCC-366; first compound 0.006325 µM) was 0.359, the relative viability (HCC-366; first compound 0.02 µM) was 0.31 and the relative viability (HCC-366; first compound 0.06325 µM) was 0.0527. For the same compound, the relative viability (HCC-366; first compound 0.2 µM) was 0.038, the relative viability (RERF-LC-KJ; first compound 0.002 µM) was 0.759 and the relative viability (RERF-LC-KJ; first compound 0.006325 µM) was 0.669. The relative viability (RERF-LC-KJ; first compound 0.02 µM) was 0.417, the relative viability (RERF-LC-KJ; first compound 0.06325 µM) was 0.225 and the relative viability (RERF-LC-KJ; first compound 0.2 µM) was 0.198. It also gave a relative viability (NCI-H2170; first compound 0.002 µM) of 0.468, a relative viability (NCI-H2170; first compound 0.006325 µM) of 0.456 and a relative viability (NCI-H2170; first compound 0.06325 µM) of 0.47. For the same compound, the relative viability (NCI-H2170; first compound 0.2 µM) was 0.507, the relative viability (NCI-H1792; first compound 0.002 µM) was 0.521 and the relative viability (NCI-H1792; first compound 0.006325 µM) was 0.458. It also gave a relative viability (NCI-H1792; first compound 0.02 µM) of 0.429, a relative viability (NCI-H1792; first compound 0.06325 µM) of 0.078 and a relative viability (NCI-H1792; first compound 0.2 µM) of 0.0722. For the same compound, the relative viability (A-427; first compound 0.002 µM) was 0.611, the relative viability (A-427; first compound 0.006325 µM) was 0.514 and the relative viability (A-427; first compound 0.02 µM) was 0.446. The relative viability (A-427; first compound 0.06325 µM) was 0.599, the relative viability (A-427; first compound 0.2 µM) was 0.269 and the relative viability (LC-2-ad; first compound 0.002 µM) was 0.886. It also gave a relative viability (LC-2-ad; first compound 0.006325 µM) of 0.766, a relative viability (LC-2-ad; first compound 0.02 µM) of 0.754 and a relative viability (LC-2-ad; first compound 0.06325 µM) of 0.778. For the same compound, the relative viability (LC-2-ad; first compound 0.2 µM) was 0.786.
